Measured values published in patent US9981912B2, “Cocrystal of lorcaserin, preparation methods, pharmaceutical compositions and uses thereof” (priority 2014, dated 2018).
Structures can show the parent of a compound that is named as a salt.

Assays:
[1] = disclosed in WO2006/069363A2; cited from earlier work
[2] = Solubility in pure water at 25° C. (Test Example 1)
[3] = Storage stability at 25° C., 60% RH for 6 months; type: physicochemical

| Compound | hygroscopicity [1] | stability among crystalline Forms I, II and III [1] | solubility ([2]; in water, 25° C., listed as Lorcaserin hydrochloride hemihydrate (the known)) [mg/mL] | solubility ([2]; pure water, 25 °C, water, thermodynamic from solid) [mg/mL] | purity and crystalline form after storage [3] |
| --- | --- | --- | --- | --- | --- |
| C[C@H]1CNCCc2ccc(Cl)cc21 [lorcaserin hydrochloride hemihydrate, (R)-8-chloro-1-methyl-2,3,4,5-tetrahydro-1H-3-benzazepine] | poor hygroscopicity | the most stable form | >200 | > 200 | – |
| cocrystal of lorcaserin hydrochloride and benzoic acid [the cocrystal] | – | – | – | – | unchanged |
